Test results from patent publication US20260218439A1, “METHOD OF TREATING OR REDUCING CANCER COMPRISING ADMINISTERING A COMPOUND 3-(BENZO[D][1,3]DIOXOL-5-YL)-7-(1-HYDROXYPROPAN-2-YL)-1-(1H-INDOLE-3-YL)-6,7-DIHYDRO-3H-OXAZOLE[3,4-A]PYRAZINE-5,8-DIONE” (BIOLAB SANUS FARMACEUTICA LTDA, priority 2019, published 2026).

What was measured:
[1] = biological target: T1, PDE5A1 (Homo sapiens, UniProt O76074); assay: PDE5A1 fluorescence polarization enzyme assay (BPS Bioscience kit 60350); type: biochemical
T1 construct: purchased BPS Bioscience 60350
Method: The evaluation of the compound is studied using BPS Bioscience enzyme assay kit (catalogue 60350). The PDE5A1 Assay kit is designed for identification of PDE5A1 inhibitors using fluorescence polarization. The assay is based on the binding of a fluorescent nucleotide monophosphate generated by PDE5A1 enzyme to the binding agent.
In this methodology only two simple steps on a microtiter plate are required for PDE5A1 reactions. First, the fluorescently labeled cGMP is incubated with PDE5A1 for 1 hour. Second, the binding agent is added to the reaction mixture to produce a change in fluorescent polarization that can then be measured using a fluorescence reader equipped for the measurement of fluorescence polarization.
For the assay the storage reagent FAM-Cyclic-3′,5′-GMP (20 μM) is diluted with PDE assay buffer to achieve the solution with a […]; the PDE5A1 enzyme is thawed and diluted with the PDE buffer obtaining a PDE5A1 solution at 10 μg/mL.
The assay compounds are diluted with DMSO 100% (v/v) at a concentration of 1000 μM and subsequently diluted in a Sodium chloride 0.9% solution to obtain a curve of concentrations of interest for the assay. The compounds are diluted in concentrations of: 10 nM, 30 nM, 50 nM, 100 nM, 300 nM, 500 nM, 1 μM, 3 μM, 5 μM (DMSO 10% v/v).
The study is comprised of groups: (i) substrate control; (ii) positive control (KIT); (iii) samples in several concentrations; (iv) tadalafil (comparative control). Each parameter (group) is triple labeled.
• For the 4 groups there is added, to each microplate well, […] of the FAM-Cyclic-3′ reagent, 5′-GMP (200 μM). • To the substrate control group there is added, to each well, […] of vehicle (DMSO 10% v/v) and […] PDE Buffer. • To the positive control group there is added, to each well, […] of vehicle (DMSO 10% v/v). • To the tadalafil group: there is added 5 mL of the solution in the concentrations of interest. • To the test group there is added 5 mL of the sample solution (test compound)
OBSERVATION: the parameters tested are in triplicate.
To begin the reaction, add […] of the PDE5A1 enzyme (diluted as described above) to the microplate wells designated as Positive Control and Samples (test and tadalafil), and incubate the microplate, for 1 hour, at a temperature of 25° C.
After the incubation period, the reaction is interrupted by the addition, in all the wells, of […] of the binding agent solution and the microplate is incubated for 30 minutes, under light stirring, at room temperature. The reading of the microplate is carried out in Polarized Fluorescence (475-495 nm—excitation and 518-538 nm—emission detection) 500 nanoseconds integration time.

[2] = system: PC3-human prostate cancer cells; assay: Cell proliferation inhibition (CYQuant intracellular DNA), PC3; type: cell-based; conditions: for % Cell Proliferation Inhibition (intracellular DNA) PC-3 (average ± E.P.M.): 72 hours
Method: (§1) For the execution of the assay, the compounds are diluted in DMSO 100% (v/v) at a concentration of 1000 μM and subsequently diluted in a Sodium Chloride solution 0.9% to obtain the storage solutions of interest for use in the assays. The final concentration of interest will be directly diluted in the cell culture medium. For the assay there are used the following tumor cell lineages: PC3-human prostate cancer cells; LNCAP-human prostate cancer cells; DU145-human prostate cancer; MNK45-human gastric cancer and RT4-human bladder cancer cells. The tumor cell lineages are maintained in culture according to standard procedures established by the Cell Bank of Rio de Janeiro (lineage place of origin) Procedure: • For the assay, the tumor cells are seeded in the concentration of 10.000 cells per well (final volume of the reaction of […]), the plate is incubated for 8 hours, for the cells to adhere to the wall of the wells. After this period, the plate is divided in groups: • (a) test group: […] of the samples were added (test compound) in the concentrations of interest; • (b) positive control group: […] of culture medium were added (100% of cell proliferation); • (c) negative control group: 200 mL of culture medium and […] of the vehicle used were added to dilute the compounds (without cells—zero proliferation); • (d) control group: […] were added of the vehicle used to dilute the compounds. This group is important to evaluate whether the vehicle used interferes in the cell proliferation. OBSERVATION: the treatment with the concentrations of samples (test compounds) and of the controls are carried out in triplicate. • Incubate the plate for 72 hours in a CO2 kiln at 37° C. • After the incubation period, add […] of the solution with DNA marker from the CYQuant Kit and incubate the plate, for 60 minutes, in a CO2 incubator at 37° C. The fluorescence intensity is determined using a fluorescence microplate reader with 485 nm excitation and 530 nm emission detection. The results obtained were normalized relative to the positive control group (100% proliferation). For the compounds there are prepared the storage solutions in the concentrations of: 100 nM, 1 μM, 3 μM, 5 μM, 10 μM and 30 μM (DMSO 10% v/v). While the final concentrations in the test are of: 10 nM, 100 nM, 300 nM, 500 nM, 1000 nM and 3000 nM (in DMSO 1% v/v).

[3] = system: LNCAP-human prostate cancer cells; assay: Cell proliferation inhibition (CYQuant intracellular DNA), LNCAP; type: cell-based; conditions: for % Cell Proliferation Inhibition (intracellular DNA) LNCAP (average ± E.P.M.): 72 hours
Method: as §1

[4] = system: DU145-human prostate cancer; assay: Cell proliferation inhibition (CYQuant intracellular DNA), DU145; type: cell-based; conditions: for % Cell Proliferation Inhibition (intracellular DNA) DU145 (average ± E.P.M.): 72 hours
Method: as §1

[5] = system: MNK45-human gastric cancer; assay: Cell proliferation inhibition (CYQuant intracellular DNA), MNK45; type: cell-based; conditions: 72 hours
Method: as §1

[6] = system: RT4-human bladder cancer cells; assay: Cell proliferation inhibition (CYQuant intracellular DNA), RT4; type: cell-based; conditions: for % Cell Proliferation Inhibition (intracellular DNA) RT4 (average ± E.P.M.): 72 hours
Method: as §1

(R)-3-(benzo [d][1, 3]dioxol-5-yl)-7-((S)-1-hydroxypropan-2-yl)-1-(1H-indole-3-yl)-6, 7-dihydro-3H-oxazole [3, 4-a]pyrazine-5, 8-dione with (S)-3-(benzo [d][1,3]dioxol-5-yl)-7-((S)-1-hydroxypropan-2-yl)-1-(1H-indole-3-yl)-6, 7-dihydro-3H-oxazole [3, 4-a]pyrazine-5, 8-dione [BL-241]
% of Inhibition (PDE5A1) ([1]; compound 500 nM): 57%
% of Inhibition (PDE5A1) ([1]; compound 1000 nM): 71%
% of Inhibition (PDE5A1) ([1]; compound 3000 nM): 88%
PDE5 inhibition (result in words) ([1]; concentration series): capable of inhibiting the PDE5 in a dose-dependent manner
antiproliferative effect (result in words) ([2]; PC3 prostate cancer tumor lineage): presented antiproliferative effect
% Cell Proliferation Inhibition (intracellular DNA) PC-3 (average ± E.P.M.) ([2]; PC-3, 10 nM): 27 ± 11%
% Cell Proliferation Inhibition (intracellular DNA) PC-3 (average ± E.P.M.) ([2]; PC-3, 100 nM): 36 ± 7%
% Cell Proliferation Inhibition (intracellular DNA) PC-3 (average ± E.P.M.) ([2]; PC-3, 300 nM): 42 ± 6%
% Cell Proliferation Inhibition (intracellular DNA) PC-3 (average ± E.P.M.) ([2]; PC-3, 500 nM): 46 ± 1%
% Cell Proliferation Inhibition (intracellular DNA) PC-3 (average ± E.P.M.) ([2]; PC-3, 1000 nM): 33 ± 3%
antiproliferative effect (result in words) ([3]; LNCAP prostate cancer tumor lineage): presented antiproliferative effect
% Cell Proliferation Inhibition (intracellular DNA) LNCAP (average ± E.P.M.) ([3]; 10 nM): 25 ± 2%
% Cell Proliferation Inhibition (intracellular DNA) LNCAP (average ± E.P.M.) ([3]; 100 nM): 37 ± 3%
% Cell Proliferation Inhibition (intracellular DNA) LNCAP (average ± E.P.M.) ([3]; 300 nM): 38 ± 4%
% Cell Proliferation Inhibition (intracellular DNA) LNCAP (average ± E.P.M.) ([3]; 500 nM): 44 ± 2%
% Cell Proliferation Inhibition (intracellular DNA) LNCAP (average ± E.P.M.) ([3]; 1000 nM): 34 ± 6%
% Cell Proliferation Inhibition (intracellular DNA) DU145 (average ± E.P.M.) ([4]; DU145, 100 nM): 33 ± 8%
% Cell Proliferation Inhibition (intracellular DNA) DU145 (average ± E.P.M.) ([4]; DU145, 300 nM): 17 ± 3%
% Cell Proliferation Inhibition (intracellular DNA) DU145 (average ± E.P.M.) ([4]; DU145, 500 nM): 18 ± 2%
% Cell Proliferation Inhibition (intracellular DNA) DU145 (average ± E.P.M.) ([4]; DU145, 1000 nM): 22 ± 2%
% Cell Proliferation Inhibition (intracellular DNA) DU145 (average ± E.P.M.) ([4]; DU145, 3000 nM): 43 ± 5%
antiproliferative effect (result in words) ([4]; DU145 prostate cancer tumor lineage): presented antiproliferative effect
% Cell Proliferation Inhibition (intracellular DNA) MNK45 (average ± E.P.M.) ([5]; MNK45, 100 nM): 25 ± 1%
% Cell Proliferation Inhibition (intracellular DNA) MNK45 (average ± E.P.M.) ([5]; MNK45, 300 nM): 10 ± 2%
% Cell Proliferation Inhibition (intracellular DNA) MNK45 (average ± E.P.M.) ([5]; MNK45, 500 nM): 2 ± 1%
% Cell Proliferation Inhibition (intracellular DNA) MNK45 (average ± E.P.M.) ([5]; MNK45, 1000 nM): 4 ± 1%
% Cell Proliferation Inhibition (intracellular DNA) MNK45 (average ± E.P.M.) ([5]; MNK45, 3000 nM): 20 ± 3%
% Cell Proliferation Inhibition (intracellular DNA) RT4 (average ± E.P.M.) ([6]; RT4, 100 nM): 28 ± 6%
% Cell Proliferation Inhibition (intracellular DNA) RT4 (average ± E.P.M.) ([6]; RT4, 300 nM): 5 ± 2%
% Cell Proliferation Inhibition (intracellular DNA) RT4 (average ± E.P.M.) ([6]; RT4, 500 nM): 4 ± 2%
% Cell Proliferation Inhibition (intracellular DNA) RT4 (average ± E.P.M.) ([6]; RT4, 1000 nM): 11 ± 8%
% Cell Proliferation Inhibition (intracellular DNA) RT4 (average ± E.P.M.) ([6]; RT4, 3000 nM): 57 ± 4%
antiproliferative effect (result in words) ([6]; RT4 bladder cancer tumor lineage): presented antiproliferative effect
